Data reported in publication PMC9226124, “Macrocycle-stabilization of its interaction with 14-3-3 increases plasma membrane localization and activity of CFTR” (Nature Communications, 2022).
“And” between values parts separate entries of the source, which are not always exact repeats. Equal entries are not always repeated. Each block holds one molecule with its values, some of them ahead of it.

Assays:
[1] = molecular target: T1, 14-3-3β/CFTRpS753pS768 complex (Homo sapiens, UniProt P13569+P31946); assay: Dose-response fluorescence polarization (FP) assay, compound titration; type: binding; conditions: for Polarization, background subtracted: 14-3-3 10 μM, peptide 100 nM, replicates; for FP signal: With 14-3-3
T1 construct: His6 (cleaved yes); made in house; peptide synthetic
Method: The 14-3-3β concentration used for the FP screening assay was 10 μM (dashed line). c HTS FP assay of the Cyclenium library. The samples contain 100 nM of FITC-CFTR_pS753pS768 peptide, 10 μM 14-3-3β, and 50 μM compound. FC-A (100 µM) was added as a positive control and DMSO as the negative control. Hit compounds are defined as a polarization increase which is higher than 20% of the response of FC-A. Red squares are compounds that appeared positive in the negative control without 14-3-3. […] Background polarization was subtracted from all values, n = 3 technical replicates. Compounds selected for further analysis are indicated with an asterisk. e Polarization in the absence of 14-3-3. […] Source data are provided as a Source Data file. […]
(§1) The FITC-labeled peptides were dissolved in FP buffer (10 mM HEPES pH 7.4, 150 mM NaCl, 0.1% Tween20, 1 mg/mL BSA) to a final concentration of 100 nM or 10 nM. For the dose-response assays, a 14-3-3β concentration of 10 μM was used while titrating the compounds in a two-times dilution series and, for the other assays, a dilution series of 14-3-3β was made with constant concentration of compound. The dilution series were made in 384 Corning Black Round Bottom well plates and their polarization was measured with a Tecan Infinite F500 plate reader (ex. = 485 nm, em. = 535 nm). The method of fitting of the curves was: “log(agonist) vs. response – Variable slope (four parameters)” from GraphPad Prism. The equation is Y = Bottom + (Top-Bottom)/(1 + 10^((LogEC50-X)*HillSlope)).

[2] = molecular target: T2, FITC-labeled CFTRpS753pS768 peptide (no 14-3-3) (Homo sapiens, UniProt P13569); assay: Dose-response FP control assay in the absence of 14-3-3; type: binding; conditions: for Polarization in the absence of 14-3-3, background subtracted: replicates; for FP signal: No 14-3-3
T2 construct: made in house; host or cells: synthetic peptide
Method: The 14-3-3β concentration used for the FP screening assay was 10 μM (dashed line). c HTS FP assay of the Cyclenium library. The samples contain 100 nM of FITC-CFTR_pS753pS768 peptide, 10 μM 14-3-3β, and 50 μM compound. FC-A (100 µM) was added as a positive control and DMSO as the negative control. Hit compounds are defined as a polarization increase which is higher than 20% of the response of FC-A. Red squares are compounds that appeared positive in the negative control without 14-3-3. […] Background polarization was subtracted from all values, n = 3 technical replicates. Compounds selected for further analysis are indicated with an asterisk. e Polarization in the absence of 14-3-3. […] Source data are provided as a Source Data file.
as §1

T2 sequence (P13569 747-774 limits assumed): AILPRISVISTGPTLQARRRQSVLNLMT
T1 sequence (P31946 whole entry): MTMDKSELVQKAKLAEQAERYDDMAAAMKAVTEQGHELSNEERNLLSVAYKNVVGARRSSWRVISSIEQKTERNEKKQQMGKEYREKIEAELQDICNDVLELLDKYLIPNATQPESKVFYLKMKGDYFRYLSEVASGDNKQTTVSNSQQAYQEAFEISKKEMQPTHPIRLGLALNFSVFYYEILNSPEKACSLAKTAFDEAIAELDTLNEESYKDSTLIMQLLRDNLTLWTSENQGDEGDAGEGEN

Polarization, background subtracted ([1]; compound 7.8125e-7 M): -1.033 and -2.233 and -1.933
Polarization, background subtracted ([1]; compound 1.5625e-6 M): -4.033 and -5.333 and -2.333
Polarization, background subtracted ([1]; compound 3.125e-6 M): -5.033 (2×) and -4.933
Polarization, background subtracted ([1]; compound 6.25e-6 M): -4.133 and -2.733 and -3.633
Polarization, background subtracted ([1]; compound 1.25e-5 M): 1.867 and 3.867 and 0.9667
Polarization, background subtracted ([1]; compound 2.5e-5 M): 13.4667 and 18.8667 and 13.1667
Polarization, background subtracted ([1]; compound 5e-5 M): 40.8667 and 54.6667 and 41.6667
Polarization, background subtracted ([1]; compound 0.0001 M): 97.2667 and 108.167 and 99.8667
Polarization in the absence of 14-3-3, background subtracted ([2]; compound 7.8125e-7 M): 0.06667 and 0.2667 and -0.03333
Polarization in the absence of 14-3-3, background subtracted ([2]; compound 1.5625e-6 M): -0.3333 and -0.6333 (2×)
Polarization in the absence of 14-3-3, background subtracted ([2]; compound 3.125e-6 M): -0.6333 and 0.1667 and -0.7333
Polarization in the absence of 14-3-3, background subtracted ([2]; compound 6.25e-6 M): -1.333 (2×) and -0.9333
Polarization in the absence of 14-3-3, background subtracted ([2]; compound 1.25e-5 M): 0.06667 and -0.2333 and 0.1667
Polarization in the absence of 14-3-3, background subtracted ([2]; compound 2.5e-5 M): -0.8333 and -1.033 and -0.2333
Polarization in the absence of 14-3-3, background subtracted ([2]; compound 5e-5 M): -0.3333 and 0.2667 (2×)
Polarization in the absence of 14-3-3, background subtracted ([2]; compound 0.0001 M): 0.2667 and 1.467 and 3.067
Structure (SMILES): NCCCC1NC(=O)C(Cc2ccc(-c3ccccc3)cc2)NCc2ccccc2Sc2ccccc2CNC1=O (stereo not drawn) [CY001110]

Polarization, background subtracted ([1]; compound 7.8125e-7 M): 3.967 and 7.467 and 1.967
Polarization, background subtracted ([1]; compound 1.5625e-6 M): 3.067 and 3.467 and 2.467
Polarization, background subtracted ([1]; compound 3.125e-6 M): 6.467 and 6.067 and 3.767
Polarization, background subtracted ([1]; compound 6.25e-6 M): 9.367 and 10.5667 and 10.2667
Polarization, background subtracted ([1]; compound 1.25e-5 M): 21.1667 and 31.0667 and 29.9667
Polarization, background subtracted ([1]; compound 2.5e-5 M): 47.8667 and 51.0667 and 48.4667
Polarization, background subtracted ([1]; compound 5e-5 M): 75.6667 and 90.6667 and 83.6667
Polarization, background subtracted ([1]; compound 0.0001 M): 125.667 and 143.267 and 127.367
Polarization in the absence of 14-3-3, background subtracted ([2]; compound 7.8125e-7 M): 1.267 and 1.067 and 0.9667
Polarization in the absence of 14-3-3, background subtracted ([2]; compound 1.5625e-6 M): 0.5667 and 0.1667 and -0.03333
Polarization in the absence of 14-3-3, background subtracted ([2]; compound 3.125e-6 M): 1.367 and 2.667 and 1.467
Polarization in the absence of 14-3-3, background subtracted ([2]; compound 6.25e-6 M): 1.367 and 2.167 and 2.967
Polarization in the absence of 14-3-3, background subtracted ([2]; compound 1.25e-5 M): 6.867 (2×) and 8.667
Polarization in the absence of 14-3-3, background subtracted ([2]; compound 2.5e-5 M): 12.7667 and 12.6667 and 13.5667
Polarization in the absence of 14-3-3, background subtracted ([2]; compound 5e-5 M): 29.6667 and 26.2667 and 32.2667
Polarization in the absence of 14-3-3, background subtracted ([2]; compound 0.0001 M): 49.4667 and 44.0667 and 55.9667
Structure (SMILES): NCCCC1NCc2ccccc2Sc2ccccc2CNC(=O)C(Cc2c[nH]c3ccccc23)NC(=O)C(Cc2ccccc2)NC1=O (stereo not drawn) [CY000970]

Structure (SMILES): N=C(N)NCCCC1NC(=O)C(CCC(N)=O)NC(=O)C(CCCNC(=N)N)NC(=O)C2CCCN2Cc2cccc(c2)-c2ccccc2CNC1=O (stereo not drawn) [CY002028]
Polarization, background subtracted ([1]; compound 7.8125e-7 M): 0.5667 and 1.267 and 0.8667
Polarization, background subtracted ([1]; compound 1.5625e-6 M): 0.6667 and -0.1333 and 0.5667
Polarization, background subtracted ([1]; compound 3.125e-6 M): 1.867 (2×) and 1.167
Polarization, background subtracted ([1]; compound 6.25e-6 M): 2.367 and 1.667 and 2.767
Polarization, background subtracted ([1]; compound 1.25e-5 M): 6.467 and 4.967 and 7.667
Polarization, background subtracted ([1]; compound 2.5e-5 M): 12.9667 and 10.8667 and 4.867
Polarization, background subtracted ([1]; compound 5e-5 M): 26.7667 and 22.8667 and 21.6667
Polarization, background subtracted ([1]; compound 0.0001 M): 66.6667 and 58.4667 and 74.5667
Polarization in the absence of 14-3-3, background subtracted ([2]; compound 7.8125e-7 M): 1.367 and 0.8667 and 0.4667
Polarization in the absence of 14-3-3, background subtracted ([2]; compound 1.5625e-6 M): 0.5667 and -0.1333 and 0.4667
Polarization in the absence of 14-3-3, background subtracted ([2]; compound 3.125e-6 M): 0.3667 (2×) and 0.6667
Polarization in the absence of 14-3-3, background subtracted ([2]; compound 6.25e-6 M): 0.2667 and -0.5333 and 0.6667
Polarization in the absence of 14-3-3, background subtracted ([2]; compound 1.25e-5 M): -1.933 and 1.467 and 1.267
Polarization in the absence of 14-3-3, background subtracted ([2]; compound 2.5e-5 M): 1.367 (2×) and 1.467
Polarization in the absence of 14-3-3, background subtracted ([2]; compound 5e-5 M): 3.267 and 3.467 and 4.467
Polarization in the absence of 14-3-3, background subtracted ([2]; compound 0.0001 M): 7.867 and 8.067 and 8.267

EC50 ([1]; 14-3-3β 10 μM, labeled CFTRpS753pS768 100 nM): False positive
FP signal ([1]; compound 338.6 pM): 2
FP signal ([1]; compound 677.1 pM): 4
FP signal ([1]; compound 1.35422e-9 M): 3
FP signal ([1]; compound 2.70843e-9 M): 4
FP signal ([1]; compound 5.41687e-9 M): 4
FP signal ([1]; compound 1.08337e-8 M): 2
FP signal ([1]; compound 2.16675e-8 M): 4
FP signal ([1]; compound 4.3335e-8 M): 3
FP signal ([1]; compound 8.66699e-8 M): 2
FP signal ([1]; compound 1.7334e-7 M): 4
FP signal ([1]; compound 3.4668e-7 M): 4
FP signal ([1]; compound 6.93359e-7 M): 5
FP signal ([1]; compound 1.38672e-6 M): 7
FP signal ([1]; compound 2.77344e-6 M): 8
FP signal ([1]; compound 5.54688e-6 M): 14
FP signal ([1]; compound 1.10938e-5 M): 24
FP signal ([1]; compound 2.21875e-5 M): 49
FP signal ([1]; compound 4.4375e-5 M): 80
FP signal ([1]; compound 8.875e-5 M): 145
FP signal ([1]; compound 0.0001775 M): 211
FP signal ([1]; compound 0.000355 M): 249
FP signal ([1]; compound 0.00071 M): 275
FP signal ([2]; compound 338.6 pM): 2
FP signal ([2]; compound 677.1 pM): 4
FP signal ([2]; compound 1.35422e-9 M): 3
FP signal ([2]; compound 2.70843e-9 M): 4
FP signal ([2]; compound 5.41687e-9 M): 4
FP signal ([2]; compound 1.08337e-8 M): 2
FP signal ([2]; compound 2.16675e-8 M): 4
FP signal ([2]; compound 4.3335e-8 M): 3
FP signal ([2]; compound 8.66699e-8 M): 2
FP signal ([2]; compound 1.7334e-7 M): 4
FP signal ([2]; compound 3.4668e-7 M): 4
FP signal ([2]; compound 6.93359e-7 M): 5
FP signal ([2]; compound 1.38672e-6 M): 7
FP signal ([2]; compound 2.77344e-6 M): 8
FP signal ([2]; compound 5.54688e-6 M): 14
FP signal ([2]; compound 1.10938e-5 M): 24
FP signal ([2]; compound 2.21875e-5 M): 49
FP signal ([2]; compound 4.4375e-5 M): 80
FP signal ([2]; compound 8.875e-5 M): 145
FP signal ([2]; compound 0.0001775 M): 211
FP signal ([2]; compound 0.000355 M): 249
FP signal ([2]; compound 0.00071 M): 275
Structure (SMILES): N=C(N)NCCCC1NC(=O)C(Cc2ccccc2)NC(=O)C2(CCC(c3ccccc3)CC2)NCc2cccc(c2)-c2ccccc2CNC(=O)C(Cc2c[nH]c3ccccc23)NC1=O (stereo not drawn) [CY007183]
